Assay results from patent US20130136803A1, “COMPOSITIONS FOR ALGAE TREATMENT IN RECIRCULATING AND STAGNANT WATER SYSTEMS” (ARCH CHEMICALS, INC., priority 2011, published 2013).

System: wild mustard algae strain
Assay: Efficacy of zinc and chelating agents against mustard algae (biomass over time by absorbance at 450 nm and visual assessment)
Assay type: cell-based
Settings: FIGS. 1-4
Method: A wild mustard algae strain isolated from a residential swimming pool was used in this study. This strain was re-suspended into sterile capped flasks of 250 ml capacity, containing 100 ml sterile Kratz/Meyers (KM) algae medium. Algae stock cultures were incubated at room temperature with a 16/8 hours on/off cycle white fluorescent lighting for approximately 2 weeks to obtain actively growing liquid cultures at the time of experiment.
Sterile KM medium was dispensed in 50 ml aliquots into sterile 125 ml capped Erlenmeyer flasks containing 40 glass beads of 6 mm diameter. Beads provided an increased surface area for algae to attach, since this alga develops as a loosely attached yellow growth on pool surfaces. Simultaneously, beads helped to homogenize samples by grinding at the time of sampling. An initial mustard algae culture of approximately 2×104 was set into each flask. […]
Algal cultures were challenged with 2 or 4 ppm zinc from zinc sulfate monohydrate combined with 2 or 10 ppm chelator. […] Biomass was measured over time by surrogate parameters: absorbance and visual assessment. Absorbance was measured at 450 nm using 1 inch cell in a spectrophotometer; visual assessment range was 0-3, where “0” equal to no growth and “3” equal to very heavy growth. The results of the optical readings were arithmetically averaged. […]

O=P1([O-])OP(=O)([O-])OP(=O)([O-])OP(=O)([O-])OP(=O)([O-])OP(=O)([O-])O1.[Na+].[Na+].[Na+].[Na+].[Na+].[Na+] [SHMP, sodium hexametaphosphate]
effect of chelating agent on the algaestatic activity of zinc ions (2 or 4 ppm zinc from zinc sulfate monohydrate combined with 2 or 10 ppm chelator, 3 weeks, compared with zinc alone): enhanced the performance of the algaestatic activity of zinc ions at all concentrations
dependence of the enhancing effect on the ratio of zinc to SHMP (zinc to SHMP ratios 2:1 to 1:5): effect became greater with increasing amount of SHMP to a ratio of 1:5
